The numbers were not newly measured in PMC4780677 (Annual reports in medicinal chemistry, 2012), which cites them from elsewhere.

Molecules are shown by their SMILES.

This series concerns mGlu5 receptor. The note with it: cell lines; mGlu5 receptor ago-PAM vs pure PAM.

Turning to `O=C(NC1CCC1)c1ccc(C#Cc2cccc(F)c2)nc1` [VU0360172], the intrinsic agonist activity entry was “maximal intrinsic agonist activity”. For the compound `O=C(c1ccc(C#Cc2cccc(F)c2)nc1)N1CCC(O)CC1` [VU0361747], the intrinsic agonist activity entry was “devoid of intrinsic agonist activity”.
